Measured values as given in US7176237B2, “Tricyclic-bis-enone derivatives and methods of use thereof” (The Trustees of Dartmouth College, priority 2002, dated 2007).
Read-outs that look alike come from different tables or passages of the source.

Experiments:
[1] = tested on: NO production induced by IFN-γ in mouse macrophages; assay: iNOS assay: inhibition of NO production induced by IFN-γ in mouse macrophages; format: cell-based; conditions: for IC50: Macrophage
[2] = tested on: several cancer cell lines; assay: Inhibitory activity against several cancer cell lines (data not shown); format: cell-based
[3] = tested on: iNOS mRNA in RAW 264.7 cells; assay: Suppression of iNOS mRNA formation in RAW 264.7 cells; format: cell-based
Experimental: (§1) Standard methodology already in place in the inventors laboratory (Suh et al., 1998, 1999, incorporated herein by reference) can be used to evaluate the biological activity of newly synthesized TBEs using suppression of de novo synthesis of iNOS and COX-2 as endpoints. Briefly, primary mouse macrophages or RAW264.7 cells can be cultured under standard conditions and stimulated with either interferon-γ or lipopolysaccharide (LPS). TBEs are added to cell cultures at the same time as inducers. Nitric oxide production in cell culture supernatants can be measured as nitrite accumulation by the Griess reaction. Analysis of levels of iNOS protein in lysates of primary macrophages or RAW cells can be done by Western blot analysis, while levels of iNOS mRNA can be done by routine Northern blot analysis. Prostaglandin E2 production is measured with a commercially available ELISA assay kit, and […] protein and mRNA levels can measured by routine Western and Northern blot analysis, respectively. All these methods are well known in the art.

[4] = tested on: COX-2 mRNA in RAW 264.7 cells; assay: Suppression of COX-2 mRNA formation in RAW 264.7 cells; format: cell-based
Experimental: as §1

[5] = tested on: NRP-152 prostate epithelial cells; assay: Inhibition of proliferation of NRP-152 prostate epithelial cells; format: cell-based; conditions: Rattus norvegicus, Epithelial cell, read-out: IC50 level, inhibition of proliferation
[6] = tested on: MCF-7 breast cancer cells (ER-positive); assay: Inhibition of estrogen-stimulated growth of MCF-7 breast cancer cells; format: cell-based, human
[7] = tested on: activation of macrophages in CD-1 mice; format: in vivo
[8] = blocking of induction of iNOS by IFN-γ, NO production in mouse macrophages, read-out: Activity IC50

SMILES: CC1(C)CC[C@]2(C(=O)O)CC[C@]3(C)C(=CC[C@@H]4[C@@]5(C)CC[C@H](O)C(C)(C)[C@@H]5CC[C@]43C)[C@@H]2C1 [Oleanolic acid, reference compound]
- IC50 [1, 8]: > 40 µM

SMILES: CC1(C)C(=O)C(C#N)=C[C@]2(C)C3=CCC[C@@H](O)[C@]3(C)CC[C@@H]12 (racemic) [(±)-TBE-1]
- IC50 [1, 8]: 0.31 µM

SMILES: CC1(C)C(=O)C(C#N)=C[C@]2(C)C3=CC(=O)CC[C@]3(C)CC[C@@H]12 (racemic) [(±)-TBE-10]
- times more potent than TBE-5 [1]: about 3 times
- IC50 [1, 8]: 0.019 µM

SMILES: CC1(C)C(=O)C(C#N)=C[C@@]2(C)C3=CC(=O)C=C[C@@]3(C)CC[C@H]12 [(+)-TBE-5]
- IC50 [1, 8]: 0.064 µM
- potency in iNOS assay, statement in words ([1]; iNOS assay): same potency
- inhibitory activity against several cancer cell lines, enantiomers compared [2]: same inhibitory activity

SMILES: CC1(C)C(=O)C(C#N)=C[C@]2(C)C3=CC(=O)C[C@@H](O)[C@]3(C)CC[C@@H]12 (racemic) [(±)-TBE-4]
- IC50 [1, 8]: 0.075 µM

SMILES: CC1(C)C(=O)C(C#N)=C[C@]2(C)C3=CC(=O)C(C(=O)O)=C[C@]3(C)CC[C@@H]12 (racemic) [(±)-TBE-7]
- IC50 [1, 8]: 1.6 µM

SMILES: CC(=O)O[C@@H]1CCC=C2[C@@]3(C)C=C(C#N)C(=O)C(C)(C)[C@@H]3CC[C@]21C (racemic) [(±)-TBE-2]
- IC50 [1, 8]: 0.48 µM

SMILES: CC1(C)C(=O)C(C#N)=C[C@]2(C)C3=CC(=O)C=C[C@]3(C)CC[C@@H]12 [(−)-TBE-5]
- IC50 [1, 8]: 0.058 µM
- potency in iNOS assay, statement in words ([1]; iNOS assay): same potency
- inhibitory activity against several cancer cell lines, enantiomers compared [2]: same inhibitory activity

SMILES: CC(=O)O[C@@H]1CC(=O)C=C2[C@@]3(C)C=C(C#N)C(=O)C(C)(C)[C@@H]3CC[C@]21C (racemic) [(±)-TBE-3]
- IC50 [1, 8]: 0.053 µM
- potency, times less than CDDO (iNOS mRNA) ([3]; RAW cells): about 10 times
- formation of iNOS mRNA ([3]; at 1 μM in RAW cells): suppresses
- potency, times less than CDDO (COX-2 mRNA) ([4]; RAW cells): about 10 times
- formation of COX-2 mRNA ([4]; at 1 μM in RAW cells): suppresses
- IC50 [5]: ~0.1 µM

SMILES: CC1(C)C(=O)C(C#N)=C[C@]2(C)C3=CC(=O)C(C(N)=O)=C[C@]3(C)CC[C@@H]12 (racemic) [(±)-TBE-8]
- IC50 [1, 8]: 0.061 µM

SMILES: CC1(C)C(=O)C(C#N)=C[C@]2(C)C3=CC(=O)C=C[C@]3(C)CC[C@@H]12 (racemic) [(±)-TBE-5]
- IC50 ([1]; NO production induced by IFN-γ in mouse macrophages, order-of-magnitude level, read-out: IC50 level stated in text): ~0.01 µM
- IC50 [1, 8]: 0.061 µM
- IC50 [5]: ~0.1 µM

SMILES: C[C@]12CCC(=O)C=C1CC[C@@H]1[C@@H]2[C@@H](O)C[C@@]2(C)[C@H]1CC[C@]2(O)C(=O)CO [Hydrocortisone, reference compound]
- IC50 [1, 8]: 0.01 µM

SMILES: CC1(C)C(=O)C(C#N)=C[C@]2(C)C3=CC(=O)C(C#N)=C[C@]3(C)CC[C@@H]12 (racemic) [(±)-TBE-9]
- times more potent than TBE-5 [1]: ~30 times
- IC50 [1, 8]: 0.0021 µM
- IC50 ([1]; Mus musculus, iNOS assay, order-of-magnitude level, read-out: IC50 level stated in text): ~0.001 µM
- potency in iNOS assay, statement in words ([1]; iNOS assay): highest potency
- times more potent than hydrocortisone ([1]; iNOS assay): about 5 times
- potency, times more than TBE-5 [6]: about 30 times
- concentration range of dose-dependent inhibition of estrogen-stimulated growth ([6]; MCF-7 (ER-positive)): 10 to 1000 nM
- signs of toxicity ([7]; 15 and 30 mg/kg oral, mouse): no signs of toxicity
- oral activity in vivo ([7]; 15 and 30 mg/kg, administered once, oral, mouse): orally active
- activation of macrophages in mice ([7]; CD-1 mice): blocks the activation of macrophages
- in vivo potency compared with hydrocortisone ([7]; mouse peritoneal inflammation): much more potent than hydrocortisone

SMILES: COC(=O)C1=C[C@]2(C)CC[C@H]3C(C)(C)C(=O)C(C#N)=C[C@]3(C)C2=CC1=O (racemic) [(±)-TBE-6]
- IC50 [1, 8]: 0.091 µM
